We go through two molecules from publication PMC9293649 (The Journal of Biological Chemistry, 2022).

For one data set, the target named is T1, DarB (Bacillus subtilis, UniProt O31698).
T1 sequence (O31698 1-147): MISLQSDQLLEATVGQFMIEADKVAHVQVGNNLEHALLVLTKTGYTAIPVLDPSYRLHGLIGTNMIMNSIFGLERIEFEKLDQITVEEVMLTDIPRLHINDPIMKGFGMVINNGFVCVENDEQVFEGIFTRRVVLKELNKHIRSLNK
The experiment in a line: ITC and crystal structure. In kind it is binding.

The data set “crystal structure” deals with the molecule itself. In words: crystal structure.

Usually Kd stands for the constant that tells how readily two partners part at equilibrium. On DarB, `Nc1ncnc2c1ncn2[C@@H]1O[C@H](COP(=O)(O)O)[C@@H](O)[C@H]1O` [AMP] came in with a Kd of 91.1 µM.

B1: DarB (c-di-AMP receptor protein, CBS domain protein) of Bacillus subtilis, wild type (natural protein)
chain: MISLQSDQLLEATVGQFMIEADKVAHVQVGNNLEHALLVLTKTGYTAIPVLDPSYRLHGLIGTNMIMNSIFGLERIEFEKLDQITVEEVMLTDIPRLHINDPIMKGFGMVINNGFVCVENDEQVFEGIFTRRVVLKELNKHIRSLNK
The stoichiometry N is the number of molecules, sites or subunits per partner or assembly. With B1, the “stoichiometry N” value in “crystal structure” was 2.
